The values below come from ChEMBL document CHEMBL1667746, “Synthesis, antimicrobial activity and structure-activity relationship study of N,N-dibenzyl-cyclohexane-1,2-diamine derivatives” (Eur J Med Chem, 2011).

One data set has as its system Candida albicans. Description: Antifungal activity against Candida albicans MTCC 3017 after 24 hrs micro dilution assay. Type of data set: functional.
The nature of data set [1]: Toxicity in human RBC assessed as hemolysis at 1024 ug/ml. Type of data set: cell-based, Erythrocyte. The settings on record: for hemolysis at 1024 ug/ml: red blood cells, read-out: Activity; for Activity: erythrocyte.
Data set [2] has as its system Staphylococcus epidermidis. Description: Antibacterial activity against Staphylococcus epidermidis after 24 hrs micro dilution assay. Type of data set: functional. The settings on record: Staphylococcus epidermidis, 24 h; read-out: MIC.
For the next data set, the system named is Escherichia coli. Description: Antibacterial activity against Escherichia coli after 24 hrs micro dilution assay. The settings on record: Escherichia coli, 24 h; read-out: MIC. Type of data set: functional.
Another data set has as its system Pseudomonas aeruginosa. Put plainly: Antibacterial activity against Pseudomonas aeruginosa after 24 hrs micro dilution assay. Type of data set: functional. The settings on record: Pseudomonas aeruginosa, 24 h; read-out: MIC.
Another data set relates to Staphylococcus aureus. Put plainly: Antibacterial activity against Staphylococcus aureus after 24 hrs micro dilution assay. The settings on record: Staphylococcus aureus, 24 h; read-out: MIC. Type of data set: functional.
The subject of the next data set is Nakaseomyces glabratus. Description: Antifungal activity against Candida glabrata MTCC 3019 after 24 hrs micro dilution assay. Type of data set: functional.
In a further data set the test system is Geotrichum candidum. Description: Antifungal activity against Geotrichum candidum NCIM 980 after 24 hrs micro dilution assay. Type of data set: functional. The settings on record: NCIM 980, 24 h.

Activity calls are given as the source filed them. The rule behind the calls is not given here.

With `CCCCc1ccc(CNC2CCCCC2NCc2ccc(CCCC)cc2)cc1.Cl` (stereo not drawn), the MIC against Candida albicans (MTCC 3017, 24 h) came to 0.008 µg/mL; in data set [2], 0.008 µg/mL; with Escherichia coli, 0.008 µg/mL; with Pseudomonas aeruginosa it was 0.0005 µg/mL; in the data set with Staphylococcus aureus, 0.008 µg/mL; in the data set on Nakaseomyces glabratus (MTCC 3019, 24 h), 0.008 µg/mL. The MIC with Geotrichum candidum turned out to be 0.008 µg/mL. Further, in data set [1], the hemolysis at 1024 ug/ml is 7.68%.
Regarding `Cl.Clc1cccc(CNC2CCCCC2NCc2cccc(Cl)c2)c1` (stereo not drawn), the minimal inhibitory concentration (MIC) in the data set with Candida albicans (MTCC 3017, 24 h) was 0.125 µg/mL; in data set [2], 0.032 µg/mL; with Escherichia coli it was 0.032 µg/mL; in the data set with Pseudomonas aeruginosa it was 0.008 µg/mL; with Staphylococcus aureus, 0.032 µg/mL; in the data set with Nakaseomyces glabratus (MTCC 3019, 24 h) it was 0.125 µg/mL. Also, in the data set on Geotrichum candidum, the MIC amounted to 0.065 µg/mL. Besides, the hemolysis at 1024 ug/ml in data set [1] came out at 9.68%.
In the case of `Cl.FC(F)(F)c1ccc(CN[C@H]2CCCC[C@@H]2NCc2ccc(C(F)(F)F)cc2)cc1`, the MIC in the data set with Candida albicans (MTCC 3017, 24 h) was 0.125 µg/mL; in data set [2], 0.032 µg/mL; with Escherichia coli it was 0.032 µg/mL; with Pseudomonas aeruginosa, 0.008 µg/mL; with Staphylococcus aureus, 0.016 µg/mL; against Nakaseomyces glabratus (MTCC 3019, 24 h), 0.065 µg/mL. The compound further returned an MIC against Geotrichum candidum of 0.065 µg/mL. Also, the Activity entry in data set [1] is listed as “Non-toxic”.
As for `Cc1ccccc1CNC1CCCCC1NCc1ccccc1C.Cl` (stereo not drawn), the MIC entry in the data set on Candida albicans and with Nakaseomyces glabratus was “inactive” in each case. Also, in data set [1], the Activity result is “Non-toxic”. For the same compound, the MIC turned out to be 0.25 µg/mL in data set [2]; 0.125 µg/mL in the data set with Escherichia coli; 0.125 µg/mL with Pseudomonas aeruginosa; 0.25 µg/mL with Staphylococcus aureus; 0.25 µg/mL in the data set on Geotrichum candidum.
As to `Cl.FC(F)(F)c1cccc(CNC2CCCCC2NCc2cccc(C(F)(F)F)c2)c1` (stereo not drawn), the MIC against Candida albicans (MTCC 3017, 24 h) is 0.125 µg/mL; in data set [2], 0.032 µg/mL; with Escherichia coli it was 0.065 µg/mL; with Pseudomonas aeruginosa, 0.25 µg/mL; in the data set with Staphylococcus aureus it was 0.016 µg/mL; in the data set with Nakaseomyces glabratus (MTCC 3019, 24 h) it was 0.25 µg/mL. The same compound came in with a minimal inhibitory concentration (MIC) in the data set with Geotrichum candidum of 0.125 µg/mL. Further, in data set [1], the Activity result is recorded as “Non-toxic”.
As to `Cc1cccc(CNC2CCCCC2NCc2cccc(C)c2)c1.Cl` (stereo not drawn), the MIC result in the data set with Candida albicans and with Nakaseomyces glabratus was “inactive” in each case. The hemolysis at 1024 ug/ml in data set [1] was 4.78%. The MIC in data set [2] worked out at 0.25 µg/mL; with Escherichia coli, 0.125 µg/mL; in the data set with Pseudomonas aeruginosa it was 0.065 µg/mL; in the data set with Staphylococcus aureus it was 0.032 µg/mL; against Geotrichum candidum it was 0.25 µg/mL.

Usually MIC stands for the lowest concentration found to suppress growth.
